Reference: paper PMC9958325 (Nature Communications, 2023)
Values joined by “and” are separate entries in the source; they are usually repeats but may differ in a detail not shown here. Equal values may be shown once. Read-outs that look alike come from different tables or passages of the source.

Key:
[1] = target: T1, human calpain (Homo sapiens, UniProt P07384); assay: Human calpain activity assay; format: biochemical; details: for %inhibition against humanCalpain: triplicate
T1 sequence (P07384 2-714): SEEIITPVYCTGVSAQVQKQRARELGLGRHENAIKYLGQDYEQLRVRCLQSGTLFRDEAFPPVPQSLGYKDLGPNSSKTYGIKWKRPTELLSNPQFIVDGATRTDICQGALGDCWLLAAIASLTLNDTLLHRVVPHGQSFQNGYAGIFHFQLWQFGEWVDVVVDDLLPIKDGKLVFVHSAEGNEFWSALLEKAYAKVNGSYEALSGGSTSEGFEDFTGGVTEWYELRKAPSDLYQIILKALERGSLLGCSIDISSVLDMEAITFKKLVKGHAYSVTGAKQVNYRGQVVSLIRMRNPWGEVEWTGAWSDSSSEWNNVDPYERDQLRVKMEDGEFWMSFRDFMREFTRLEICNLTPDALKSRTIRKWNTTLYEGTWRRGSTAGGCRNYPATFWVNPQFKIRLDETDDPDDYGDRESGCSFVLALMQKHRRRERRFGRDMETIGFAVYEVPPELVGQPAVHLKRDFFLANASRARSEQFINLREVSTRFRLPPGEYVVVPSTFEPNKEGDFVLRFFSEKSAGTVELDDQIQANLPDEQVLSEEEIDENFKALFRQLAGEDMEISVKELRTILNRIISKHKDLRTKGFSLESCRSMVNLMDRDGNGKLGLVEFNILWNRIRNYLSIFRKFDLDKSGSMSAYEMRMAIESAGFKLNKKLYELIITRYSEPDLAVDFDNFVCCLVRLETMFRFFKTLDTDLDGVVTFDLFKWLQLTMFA
T1 sequence (P04632 1-268 partner): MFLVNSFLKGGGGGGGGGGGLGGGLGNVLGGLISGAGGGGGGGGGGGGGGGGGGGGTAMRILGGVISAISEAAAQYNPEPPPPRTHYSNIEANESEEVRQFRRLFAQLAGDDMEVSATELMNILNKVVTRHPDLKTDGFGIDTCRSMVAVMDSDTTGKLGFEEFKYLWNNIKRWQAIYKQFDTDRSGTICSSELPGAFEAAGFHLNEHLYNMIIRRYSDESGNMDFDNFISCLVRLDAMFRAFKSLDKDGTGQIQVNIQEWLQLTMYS

[2] = tested on: SARS-CoV-2^WK-521; assay: microbe, parasite or virus in culture; format: cell-based; set-up: EC95, individual assays / EC95, Average: unit: µM
[3] = tested on: SARS-CoV-2 TKYX00012/ο BA.1; assay: microbe, parasite or virus in culture; format: cell-based
[4] = tested on: SARS-CoV-2 TKYS02037/ο BA.2; assay: microbe, parasite or virus in culture; format: cell-based
[5] = tested on: SARS-CoV-2 TKYTS14631/ο BA.5; assay: microbe, parasite or virus in culture; format: cell-based
[6] = tested on: SARS-CoV-2 UT-NCD1757-1N/ο BA.2.75; assay: microbe, parasite or virus in culture; format: cell-based
[7] = tested on: SARS-CoV-2^WK521 in HeLa-ACE2-TMPRSS2 cells; assay: Antiviral assay, HeLa-ACE2-TMPRSS2 cells, WK521; format: cell-based
[8] = tested on: SARS-CoV-2^WK521 in A549-ACE2-TMPRSS2 cells; assay: Antiviral assay, A549-ACE2-TMPRSS2 cells, WK521; format: cell-based
[9] = tested on: HepG2 cells
[10] = Pharmacokinetic study in PXB-mice (human liver-chimeric)
[11] = tested on: HeLa-ACE2-TMPRSS2 cells; assay: Intracellular concentrations of compounds (LC/MS), HeLa-ACE2-TMPRSS2 cells; details: 6 h; for Intracellular amount relative to nirmatrelvir: HeLa-ACE2-TMPRSS2 cells; for Intracellular amount, individual: listed as TKB-0248

## CC(C)(C)[C@H](NC(=O)C(F)(F)F)C(=O)N1C[C@H]2[C@@H]([C@H]1C(=S)N[C@@H](C[C@@H]1CCNC1=O)C(=O)c1nc3c(F)cccc3s1)C2(C)C [TKB248]
[1]
  Effect on human calpain (in words): neither of human cysteine enzymes, cathepsin L and calpain, were significantly affected
[1]; 0.000128 µM
  %inhibition against humanCalpain: 0%
[1]; 0.00064 µM
  %inhibition against humanCalpain: 0%
[1]; 0.0032 µM
  %inhibition against humanCalpain: 0%
[1]; 0.08 µM
  %inhibition against humanCalpain: 0%
[1]; 0.4 µM
  %inhibition against humanCalpain: 0%
[1]; 2 µM
  %inhibition against humanCalpain: 1%
[1]; 60 minute incubation, mean ± 1 S.D., n=3, read-out: IC50, human calpains
  IC50: > 2 µM
[2]
  EC95, Average: 0.8712
  EC95, individual assays: 0.89 and 0.81 and 0.885 and 0.9
  SARS-CoV2 RNA VeroE6 cell-based assay EC95: 0.87 ± 0.04 µM
[2]; read-out: EC50, Average
  EC50: 0.225 µM
[2]; read-out: EC50, VeroE6 + 2 µM CP100356
  EC50: 0.03 ± 0.03 µM
[2]; read-out: EC50, VeroE6 with CP100356, Average
  EC50: 0.035 µM
[2]; read-out: EC50, VeroE6 with CP100356, individual assays
  EC50: 0.023 µM and 0.065 µM and 0.017 µM
[2]; read-out: EC50, individual assays
  EC50: 0.31 µM and 0.23 µM and 0.24 µM and 0.12 µM
[2]; read-out: SARS-CoV2 RNA VeroE6 cell-based assay EC50
  EC50: 0.22 ± 0.08 µM
[3]; read-out: EC50 against KTKYX00012/ο BA.1
  EC50: 0.282 ± 0.043 µM
[3]; read-out: EC50 ο BA1, Average
  EC50: 0.282 µM
[3]; read-out: EC50 ο BA1, individual assays
  EC50: 0.29 µM and 0.235 µM and 0.32 µM
[4]; read-out: EC50 against TKYVS2037/ο BA.2
  EC50: 0.21 ± 0.087 µM
[4]; read-out: EC50 ο BA2, individual assays
  EC50: 0.15 µM
[5]; read-out: EC50 against TKYTS14631/ο BA.5
  EC50: 0.07 ± 0.008 µM
[5]; read-out: EC50 ο BA5, Average
  EC50: 0.0707 µM
[5]; read-out: EC50 ο BA5, individual assays
  EC50: 0.0671 µM and 0.08 µM and 0.065 µM
[6]; read-out: EC50 against UT-NCD1757-1N/ο BA.2.75
  EC50: 0.43 ± 0.091 µM
[6]; read-out: EC50 ο BA2.75, individual assays
  EC50: 0.43 µM and 0.32 µM and 0.25 µM
[7]; SARS-CoV-2^WK521, read-out: EC50, HeLa-ACE2-TMPRSS2
  EC50: 0.16 ± 0.075 µM
[7]; source data, listed as TKB0248, read-out: EC50, HeLa-AEC2-TMPRSS2, individual assays
  EC50: 0.23 µM and 0.08 µM and 0.17 µM
[8]; SARS-CoV-2^WK521, read-out: EC50, A549-ACE2-TMPRSS2
  EC50: 0.199 ± 0.005 µM
[8]; source data, listed as TKB0248, read-out: EC50, A549-AEC2-TMPRSS2, individual assays
  EC50: 0.2 µM and 0.204 µM and 0.193 µM
[8]; source data, read-out: EC50, A549-AEC2-TMPRSS2, Average
  EC50: 0.199 µM
[9]
  CC50: > 200 µM
[10]; N = 3 male PXB-mouse, 10 mg/kg p.o.
  Cmax: 1,925¶ ng/mL
[10]; N = 3 male PXB-mouse, 10 mg/kg, oral (p.o.) value for TKB245
  T1/2: 4.34¶ h
[10]; PXB-mice, i.v. 10 mg/kg, 10 min, individual mice, listed as TKB0248, 10 mg/kg
  Plasma concentration: 8186.6 ng/mL and 8038.7 ng/mL and 9327.7 ng/mL
[10]; PXB-mice, i.v. 10 mg/kg, 0.17 hr, individual mice, listed as TKB0248, 10 mg/kg
  Plasma concentration: 8190 ng/mL and 8040 ng/mL and 9330 ng/mL
[10]; PXB-mice, i.v. 10 mg/kg, 60 min, individual mice, listed as TKB0248, 10 mg/kg
  Plasma concentration: 3193.2 ng/mL and 4290.6 ng/mL and 4927 ng/mL
[10]; PXB-mice, i.v. 10 mg/kg, 1 hr, individual mice, listed as TKB0248, 10 mg/kg
  Plasma concentration: 3190 ng/mL and 4290 ng/mL and 4930 ng/mL
[10]; PXB-mice, i.v. 10 mg/kg, 240 min, individual mice, listed as TKB0248, 10 mg/kg
  Plasma concentration: 955 ng/mL and 1072.2 ng/mL and 1659.6 ng/mL
[10]; PXB-mice, i.v. 10 mg/kg, 4 hr, individual mice, listed as TKB0248, 10 mg/kg
  Plasma concentration: 960 ng/mL and 1070 ng/mL and 1660 ng/mL
[10]; PXB-mice, i.v. 10 mg/kg, 480 min, individual mice, listed as TKB0248, 10 mg/kg
  Plasma concentration: 290 ng/mL and 301.5 ng/mL and 497.6 ng/mL
[10]; PXB-mice, i.v. 10 mg/kg, 8 hr, individual mice, listed as TKB0248, 10 mg/kg
  Plasma concentration: 290 ng/mL and 300 ng/mL and 500 ng/mL
[10]; PXB-mice, i.v. 10 mg/kg, 1440 min, individual mice, listed as TKB0248, 10 mg/kg
  Plasma concentration: 13.9 ng/mL and 20.8 ng/mL and 20 ng/mL
[10]; PXB-mice, i.v. 10 mg/kg, 24 hr, individual mice, listed as TKB0248, 10 mg/kg
  Plasma concentration: 0.01 µg/ml and 0.02 µg/ml (2×)
[10]; PXB-mice, p.o. 10 mg/kg, 10 min, individual mice, listed as TKB0248, 10 mg/kg
  Plasma concentration: 803.8 ng/mL and 639.6 ng/mL and 800.1 ng/mL
[10]; PXB-mice, p.o. 10 mg/kg, 0.17 hr, individual mice, listed as TKB0248, 10 mg/kg
  Plasma concentration: 0.8 µg/ml (2×) and 0.64 µg/ml
[10]; PXB-mice, p.o. 10 mg/kg, 60 min, individual mice, listed as TKB0248, 10 mg/kg
  Plasma concentration: 2400.6 ng/mL and 1592.1 ng/mL and 1781.9 ng/mL
[10]; PXB-mice, p.o. 10 mg/kg, 1 hr, individual mice, listed as TKB0248, 10 mg/kg
  Plasma concentration: 2400 ng/mL and 1590 ng/mL and 1780 ng/mL
[10]; PXB-mice, p.o. 10 mg/kg, 240 min, individual mice, listed as TKB0248, 10 mg/kg
  Plasma concentration: 1886.1 ng/mL and 944.6 ng/mL and 788.3 ng/mL
[10]; PXB-mice, p.o. 10 mg/kg, 4 hr, individual mice, listed as TKB0248, 10 mg/kg
  Plasma concentration: 1890 ng/mL and 940 ng/mL and 790 ng/mL
[10]; PXB-mice, p.o. 10 mg/kg, 480 min, individual mice, listed as TKB0248, 10 mg/kg
  Plasma concentration: 645.5 ng/mL and 263.6 ng/mL and 711 ng/mL
[10]; PXB-mice, p.o. 10 mg/kg, 8 hr, individual mice, listed as TKB0248, 10 mg/kg
  Plasma concentration: 650 ng/mL and 260 ng/mL and 710 ng/mL
[10]; PXB-mice, p.o. 10 mg/kg, 1440 min, individual mice, listed as TKB0248, 10 mg/kg
  Plasma concentration: 66.2 ng/mL and 80.3 ng/mL and 54.4 ng/mL
[10]; PXB-mice, p.o. 10 mg/kg, 24 hr, individual mice, listed as TKB0248, 10 mg/kg
  Plasma concentration: 70 ng/mL and 80 ng/mL and 50 ng/mL
[10]; male PXB-mouse 10 mg/kg i.v. and p.o., dose-normalized AUC ratio, 10 mg/kg
  Oral F: 72% and 72¶ %
[10]; p.o., 10 min, individual animals (3 per time point), LC/MS/MS, listed as TKB0248
  Plasma concentration: 803.78 ng/mL and 639.58 ng/mL and 800.12 ng/mL
[10]; p.o., 60 min, individual animals (3 per time point), LC/MS/MS, listed as TKB0248
  Plasma concentration: 2400.63 ng/mL and 1592.07 ng/mL and 1781.87 ng/mL
[10]; p.o., 240 min, individual animals (3 per time point), LC/MS/MS, listed as TKB0248
  Plasma concentration: 1886.06 ng/mL and 944.61 ng/mL and 788.27 ng/mL
[10]; p.o., 480 min, individual animals (3 per time point), LC/MS/MS, listed as TKB0248
  Plasma concentration: 645.53 ng/mL and 263.61 ng/mL and 711.03 ng/mL
[10]; p.o., 1440 min, individual animals (3 per time point), LC/MS/MS, listed as TKB0248
  Plasma concentration: 66.21 ng/mL and 80.35 ng/mL and 54.38 ng/mL
[11]; 50 µM
  Intracellular amount relative to nirmatrelvir: 318 fold
[11]; 100 µM
  Intracellular amount relative to nirmatrelvir: 165 fold
[11]; Hela ACE2 TMPRSS2, 10uM
  Intracellular amount, avg: 295.717 pmol(total)
  Intracellular amount, individual: 295.283 pmol(total) and 296.151 pmol(total)
[11]; Hela ACE2 TMPRSS2, 50uM
  Intracellular amount, avg: 570.720 pmol(total)
  Intracellular amount, individual: 643.805 pmol(total) and 497.635 pmol(total)
[11]; Hela ACE2 TMPRSS2, 100uM
  Intracellular amount, avg: 630.843 pmol(total)
  Intracellular amount, individual: 605.189 pmol(total) and 656.496 pmol(total)
